Test results as given in article PMC7355972, “Flavonoids in Decorticated Sorghum Grains Exert Antioxidant, Antidiabetic and Antiobesity Activities” (Molecules, 2020).

How the values were obtained:
[1] = DPPH radical scavenging activity; conditions: soluble (70% ethanol) extracts; 30 min, 517 nm
Protocol: The method previously described by Ofosu et al. was used to measure DPPH radical scavenging by ethanol extracts using a 24-well microplate reader. Briefly, 200 μL sample extracts of various concentrations were added to 2 mL freshly made DPPH radical solution (100 μM). After 30 min incubation at room temperature, absorbance was read at 517 nm.

[2] = ABTS radical scavenging activity; conditions: soluble (70% ethanol) extracts; 734 nm
Protocol: The ABTS radical scavenging assay described by Ofosu et al. was used. ABTS^+ stock solution was prepared by reacting equal volumes of 7 mM ABTS solution with 2.45 mM potassium persulfate solution in the dark at room temperature for 16 h. Using ethanol, the ABTS+ stock solution was diluted to obtain an absorbance of approximately 0.70 at 734 nm. Appropriately, 80 μL sample extracts of various concentrations were added to 1 mL freshly prepared ABTS+ radical solution, and the absorbance was read at 734 nm.

[3] = test system: advanced glycation end-products (AGEs) formation; experiment: Inhibition of protein glycation (BSA/D-glucose, fluorescent AGEs); conditions: BSA + D-glucose, 37 °C for a week
Protocol: The procedure by Sekhon-Loodu and Rupasinghe was adapted with slight modification. Bovine serum albumin (BSA), D-glucose and aminoguanidine were dissolved in 0.2 M phosphate buffer saline (pH 7.4) containing sodium azide (0.02% w/v). Equal volumes containing BSA (5.0 mg/mL) and D-glucose (36 mg/mL) and the negative control or the test samples or aminoguanidine at different concentrations (0.01, 0.02, 0.04, 0.05, 0.1, 0.2, 0.5 and 1.0 mg/mL) were added to reach a final volume of 1.0 mL. Aminoguanidine, a known AGE formation inhibitor, was used as the positive control. The mixtures in Eppendorf tubes were incubated in triplicate at 37 °C for a week. Fluorescent AGEs were measured using a microplate reader at 340 nm excitation and 420 nm emission wavelengths. Experiments were conducted in triplicates. The percentage of the AGE inhibition was calculated as shown below:(3) Inhibition (%)=[1−(Fluorescent of the test/Fluorescent of control)]×100
The results were expressed in terms of IC50 representing the concentration of test extracts required to cause the inhibition of AGE formation by 50%.

| Structure (SMILES) | DPPH radical scavenging activity IC50 [1] [µg/mL] | ABTS radical scavenging activity IC50 [2] [µg/mL] | AGEs formation inhibitory activity IC50 [3] [µg/mL] |
| --- | --- | --- | --- |
| Cc1c(C)c2c(c(C)c1O)CCC(C)(C(=O)O)O2 (stereo not drawn) [Trolox, 6-hydroxy-2,5,7,8-tetramethylchromane-2-carboxylic acid] | 48.7 ± 2.19 | 74.60 ± 1.45 |  |
| N=C(N)NN [aminoguanidine] |  |  | 52.30 |
